Laboratory results: patent US20230117831A1, “MULTI-FUNCTIONAL CHIMERIC MOLECULES” (THE BROAD INSTITUTE, INC., priority 2020, published 2023)
“Also recorded” adds a separate entry of the source. Blank lines part the entries; values can stand above or below the compound they belong to.

What was measured:
ABL [1] = target: T1, ABL (Homo sapiens, UniProt P00519); conditions: cited from earlier work
ABL [2] = target: T1, ABL; test: ADP-Glo ABL activation; format: biochemical
Description: To expand the scope of PHICS beyond the Ser/Thr kinases (AMPK or PKC), Applicants will develop PHICS using the Abelson (ABL) family that are nonreceptor tyrosine kinases with SH3-SH2-TK ([…]) domains (42, 43). An autoinhibitory mechanism involving intramolecular interactions stabilizes this kinase in a “locked” conformation, inhibiting kinase activity unless the SH3 domain interactions are disrupted by binding of an activator. The SH2 domain of ABL is responsible for substrate specificity: if the SH2 domain is exchanged for another protein's SH2 domain, then substrate specificity is altered (43). […] Both DPH and DPH with linker (FIG. 83B) activated ABL in […] (FIG. 83C).

PKC beta = PKC beta (Homo sapiens, UniProt P05771); conditions: cited from earlier work
PKC delta = PKC delta (Homo sapiens, UniProt Q05655); conditions: cited from earlier work
PKC epsilon = target: T2, PKC epsilon (Homo sapiens, UniProt Q02156); conditions: cited from earlier work
T2 sequence (Q02156 1-737): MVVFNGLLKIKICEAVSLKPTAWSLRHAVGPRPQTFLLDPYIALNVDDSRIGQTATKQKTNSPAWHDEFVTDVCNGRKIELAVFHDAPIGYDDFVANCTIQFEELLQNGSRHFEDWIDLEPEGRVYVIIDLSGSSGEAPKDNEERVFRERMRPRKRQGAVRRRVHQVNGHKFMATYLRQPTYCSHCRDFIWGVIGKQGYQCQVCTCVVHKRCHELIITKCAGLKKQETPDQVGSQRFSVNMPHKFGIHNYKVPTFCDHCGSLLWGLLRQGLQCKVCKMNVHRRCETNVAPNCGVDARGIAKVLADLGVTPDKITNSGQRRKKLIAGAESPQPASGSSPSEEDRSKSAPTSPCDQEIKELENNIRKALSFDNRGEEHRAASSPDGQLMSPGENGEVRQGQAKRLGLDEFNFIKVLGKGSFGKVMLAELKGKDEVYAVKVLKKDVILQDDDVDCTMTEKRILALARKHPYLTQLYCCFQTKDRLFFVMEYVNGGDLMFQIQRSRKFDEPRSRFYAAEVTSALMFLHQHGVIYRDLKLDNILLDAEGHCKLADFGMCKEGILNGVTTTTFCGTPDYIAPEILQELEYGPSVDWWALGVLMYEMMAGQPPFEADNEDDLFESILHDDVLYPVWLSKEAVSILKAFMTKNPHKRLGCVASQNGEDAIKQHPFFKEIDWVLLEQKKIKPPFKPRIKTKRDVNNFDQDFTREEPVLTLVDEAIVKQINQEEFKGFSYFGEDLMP

PKCδ = PKCδ (Homo sapiens, UniProt Q05655); conditions: cited from earlier work
[3] = system: lung cancer and HeLa cervical adenocarcinoma cells; conditions: formation of membrane ruffles; cited from earlier work
PKCalpha [4] = target: T3, PKCalpha (Homo sapiens, UniProt P17252); conditions: cited from earlier work
[5] = system: breast carcinoma cell lines MCF-7 and MDA-MB-231; conditions: cited from earlier work
PKCalpha [6] = target: T3, PKCalpha; conditions: cited from earlier work; remark: listed apart in the source
PKC gamma = PKC gamma (Homo sapiens, UniProt P05129); conditions: cited from earlier work
BTK (Ser180) [7] = target: BTK (Ser180) (Homo sapiens, UniProt Q06187+Q13131+Q9Y478); test: in vitro BTK phosphorylation by AMPK, western blot; format: biochemical; conditions: phospho BTK (Ser180) antibody
Protocol: FIG. 69—In-vitro biochemical validation of BTK phosphorylation by AMPK in the presence of PHICS. Western blot analysis for BTK phosphorylation using 10 μM BTK targeting AMPK-PHICS with different linkers for identification of the optimal molecule for further studies.

[8] = system: AMPK:PHICS3:BTK ternary complex; test: co-immunoprecipitation of AMPK with BTK-Flag in HEK293T cells; format: cell-based; conditions: HEK293T transfected with BTK-Flag
Protocol: Co-immunoprecipitation was performed to evaluate the ternary complex (AMPK: PHICS3: BTK) formation in HEK293T cells after overexpressing the BTK, which is otherwise absent in these cells. HEK293T cells were cultured in DMEM supplemented with 10% FBS, penicillin (100 units/mL) and streptomycin (100 μg/mL). Cells were maintained at 37° C. in 5% CO2 humidified atmosphere.
After 36 hrs transfection of pcDNA3.1(+) BTK-Flag plasmid using TransIT®-293 Transfection Reagent, HEK 293T cells were maintained in a serum-free media overnight before incubation with compounds. After that, cells were treated with 5 μM concentration of AMPK activator or BTK binder or PHICS3 or DMSO control for 4 hrs in a fresh serum-free media before cells were lysed on ice in a lysis buffer (M-PER™ Mammalian Protein Extraction Reagent, Halt™ Protease and Phosphatase Inhibitor Cocktail (2×) and 50 mM NaF). Next, the protein concentrations of cell lysates were measured using Pierce™ BCA Protein Assay Kit. Equal amounts of cell lysates were incubated with Anti-FLAG® M2 Magnetic Beads overnight at 4° C. […] Eluted proteins were analyzed by western blotting using AMPK-α rabbit antibody (Cell Signaling, Cat #5832) or Flag mouse antibody (Cell Signaling, Cat #8146) (1:2000) or Beta-actin mouse antibody (Cell Signaling, Cat #3700) (1:2000).

BTK (Ser180) [9] = target: T4, BTK (Ser180) (Homo sapiens, UniProt Q06187, T474A); test: BTK Ser180 phosphorylation in HEK293T cells, western blot; format: cell-based; conditions: BTK T474A mutant
T4 construct: expressed in transfected cells; host or cells: HEK293T

BTK (Ser180) [10] = target: T5, BTK (Ser180) (Homo sapiens, UniProt Q06187, S180A); test: as above; format: cell-based; conditions: BTK-Flag S180A mutant
T5 construct: expressed in transfected cells; host or cells: HEK293T

BTK (Ser180) [11] = target: T6, BTK (Ser180) (Homo sapiens, UniProt Q06187, K430R); test: as above; format: cell-based; conditions: BTK K430R mutant
T6 construct: expressed in transfected cells; host or cells: HEK293T

BTK (Ser180) [12] = target: BTK (Ser180) (Homo sapiens, UniProt Q06187); test: as above; format: cell-based
BTK (Ser180) [13] = target: T7, BTK (Ser180) (Homo sapiens, UniProt Q06187, D539N); test: as above; format: cell-based; conditions: BTK D539N mutant
T7 construct: expressed in transfected cells; host or cells: HEK293T

VEGFR = VEGFR (Homo sapiens, UniProt P35968); conditions: cited from earlier work

Sequence of BTK (Ser180) (Homo sapiens, UniProt Q06187) (Q06187 2-659): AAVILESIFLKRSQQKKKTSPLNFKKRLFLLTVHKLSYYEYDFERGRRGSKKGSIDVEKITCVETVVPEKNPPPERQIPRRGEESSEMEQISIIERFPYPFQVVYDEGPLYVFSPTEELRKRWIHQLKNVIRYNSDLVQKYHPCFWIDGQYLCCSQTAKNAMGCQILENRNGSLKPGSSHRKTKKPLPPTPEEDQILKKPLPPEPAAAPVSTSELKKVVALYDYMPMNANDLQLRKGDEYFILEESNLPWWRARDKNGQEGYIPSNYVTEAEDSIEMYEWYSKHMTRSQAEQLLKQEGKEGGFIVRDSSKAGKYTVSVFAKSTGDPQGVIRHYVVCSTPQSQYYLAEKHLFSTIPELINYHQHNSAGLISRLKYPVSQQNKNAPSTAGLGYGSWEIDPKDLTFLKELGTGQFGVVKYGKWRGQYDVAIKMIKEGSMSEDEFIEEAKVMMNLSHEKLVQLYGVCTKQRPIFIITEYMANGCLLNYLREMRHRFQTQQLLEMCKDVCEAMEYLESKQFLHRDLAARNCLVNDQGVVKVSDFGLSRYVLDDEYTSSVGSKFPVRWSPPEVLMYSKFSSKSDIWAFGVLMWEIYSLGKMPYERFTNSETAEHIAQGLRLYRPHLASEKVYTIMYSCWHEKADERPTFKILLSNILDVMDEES
Sequence of BTK (Ser180) (Homo sapiens, UniProt Q06187+Q13131+Q9Y478) (Q06187 whole entry): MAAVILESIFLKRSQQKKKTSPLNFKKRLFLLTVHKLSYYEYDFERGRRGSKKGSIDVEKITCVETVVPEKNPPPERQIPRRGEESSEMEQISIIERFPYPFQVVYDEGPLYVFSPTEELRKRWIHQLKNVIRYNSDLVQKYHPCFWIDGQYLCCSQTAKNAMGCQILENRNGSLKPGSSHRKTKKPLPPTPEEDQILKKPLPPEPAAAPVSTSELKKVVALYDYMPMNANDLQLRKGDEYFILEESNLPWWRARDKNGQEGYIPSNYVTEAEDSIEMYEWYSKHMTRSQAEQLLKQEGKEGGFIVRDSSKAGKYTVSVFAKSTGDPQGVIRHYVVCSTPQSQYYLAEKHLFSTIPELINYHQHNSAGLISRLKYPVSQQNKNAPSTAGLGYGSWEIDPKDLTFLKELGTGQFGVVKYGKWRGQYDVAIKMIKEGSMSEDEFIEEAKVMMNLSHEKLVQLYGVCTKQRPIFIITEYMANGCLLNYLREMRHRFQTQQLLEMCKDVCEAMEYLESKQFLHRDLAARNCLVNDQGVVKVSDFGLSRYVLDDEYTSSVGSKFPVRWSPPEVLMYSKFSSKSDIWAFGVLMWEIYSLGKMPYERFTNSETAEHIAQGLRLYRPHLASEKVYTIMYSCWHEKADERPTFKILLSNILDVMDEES
Sequence of BTK (Ser180) (Homo sapiens, UniProt Q06187+Q13131+Q9Y478) (Q13131 whole entry): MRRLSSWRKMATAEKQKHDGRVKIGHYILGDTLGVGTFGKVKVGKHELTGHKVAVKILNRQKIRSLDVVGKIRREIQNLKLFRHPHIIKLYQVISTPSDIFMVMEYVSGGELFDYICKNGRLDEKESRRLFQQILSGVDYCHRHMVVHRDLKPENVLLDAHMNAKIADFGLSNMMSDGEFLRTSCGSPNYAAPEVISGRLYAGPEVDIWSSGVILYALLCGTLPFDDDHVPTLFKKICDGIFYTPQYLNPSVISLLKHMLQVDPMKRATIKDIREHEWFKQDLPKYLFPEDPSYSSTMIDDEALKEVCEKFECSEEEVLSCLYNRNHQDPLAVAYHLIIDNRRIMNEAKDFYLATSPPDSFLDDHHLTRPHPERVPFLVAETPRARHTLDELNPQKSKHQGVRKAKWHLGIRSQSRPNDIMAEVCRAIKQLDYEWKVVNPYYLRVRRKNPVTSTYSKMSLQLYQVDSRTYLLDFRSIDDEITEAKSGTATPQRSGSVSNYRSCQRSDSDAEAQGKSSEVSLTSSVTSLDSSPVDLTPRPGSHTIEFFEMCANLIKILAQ
Sequence of BTK (Ser180) (Homo sapiens, UniProt Q06187+Q13131+Q9Y478) (Q9Y478 whole entry): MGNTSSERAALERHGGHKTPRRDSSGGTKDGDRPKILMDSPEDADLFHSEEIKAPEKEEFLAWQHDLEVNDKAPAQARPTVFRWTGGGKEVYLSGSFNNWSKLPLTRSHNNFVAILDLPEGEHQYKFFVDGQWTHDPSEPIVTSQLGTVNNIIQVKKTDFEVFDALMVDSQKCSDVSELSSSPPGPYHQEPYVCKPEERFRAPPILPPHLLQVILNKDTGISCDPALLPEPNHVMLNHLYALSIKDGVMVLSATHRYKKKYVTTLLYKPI
Sequence of BTK (Ser180) (Homo sapiens, UniProt Q06187+Q13131+Q9Y478) (P54619 whole entry partner): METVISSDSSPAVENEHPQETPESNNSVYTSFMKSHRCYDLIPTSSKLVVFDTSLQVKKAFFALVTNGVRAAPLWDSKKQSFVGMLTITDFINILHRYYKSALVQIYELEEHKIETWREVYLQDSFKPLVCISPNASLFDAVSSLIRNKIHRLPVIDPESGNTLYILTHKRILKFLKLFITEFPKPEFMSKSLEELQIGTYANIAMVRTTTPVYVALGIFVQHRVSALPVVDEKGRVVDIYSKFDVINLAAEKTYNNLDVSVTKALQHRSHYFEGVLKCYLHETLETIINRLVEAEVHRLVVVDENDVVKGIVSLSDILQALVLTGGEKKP
Sequence of PKC beta (P05771 whole entry): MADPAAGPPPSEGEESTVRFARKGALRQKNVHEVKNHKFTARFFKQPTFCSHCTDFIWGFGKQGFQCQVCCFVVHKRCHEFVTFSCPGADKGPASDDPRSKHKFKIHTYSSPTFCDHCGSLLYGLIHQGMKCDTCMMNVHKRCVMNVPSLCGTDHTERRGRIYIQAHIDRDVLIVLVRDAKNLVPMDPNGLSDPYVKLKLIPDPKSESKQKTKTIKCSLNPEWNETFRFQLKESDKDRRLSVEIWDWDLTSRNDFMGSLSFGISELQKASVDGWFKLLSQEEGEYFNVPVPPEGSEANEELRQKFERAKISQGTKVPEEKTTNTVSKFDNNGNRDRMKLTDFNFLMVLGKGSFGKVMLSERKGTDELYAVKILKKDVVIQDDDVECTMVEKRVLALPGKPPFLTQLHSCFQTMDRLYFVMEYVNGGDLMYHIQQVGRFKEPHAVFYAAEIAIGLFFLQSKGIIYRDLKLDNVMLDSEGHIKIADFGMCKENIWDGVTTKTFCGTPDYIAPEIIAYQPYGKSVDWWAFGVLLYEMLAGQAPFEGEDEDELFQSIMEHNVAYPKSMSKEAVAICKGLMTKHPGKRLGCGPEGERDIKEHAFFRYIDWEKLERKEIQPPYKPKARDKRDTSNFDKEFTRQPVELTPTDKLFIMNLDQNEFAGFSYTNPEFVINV
T1 sequence (P00519 whole entry, species assumed): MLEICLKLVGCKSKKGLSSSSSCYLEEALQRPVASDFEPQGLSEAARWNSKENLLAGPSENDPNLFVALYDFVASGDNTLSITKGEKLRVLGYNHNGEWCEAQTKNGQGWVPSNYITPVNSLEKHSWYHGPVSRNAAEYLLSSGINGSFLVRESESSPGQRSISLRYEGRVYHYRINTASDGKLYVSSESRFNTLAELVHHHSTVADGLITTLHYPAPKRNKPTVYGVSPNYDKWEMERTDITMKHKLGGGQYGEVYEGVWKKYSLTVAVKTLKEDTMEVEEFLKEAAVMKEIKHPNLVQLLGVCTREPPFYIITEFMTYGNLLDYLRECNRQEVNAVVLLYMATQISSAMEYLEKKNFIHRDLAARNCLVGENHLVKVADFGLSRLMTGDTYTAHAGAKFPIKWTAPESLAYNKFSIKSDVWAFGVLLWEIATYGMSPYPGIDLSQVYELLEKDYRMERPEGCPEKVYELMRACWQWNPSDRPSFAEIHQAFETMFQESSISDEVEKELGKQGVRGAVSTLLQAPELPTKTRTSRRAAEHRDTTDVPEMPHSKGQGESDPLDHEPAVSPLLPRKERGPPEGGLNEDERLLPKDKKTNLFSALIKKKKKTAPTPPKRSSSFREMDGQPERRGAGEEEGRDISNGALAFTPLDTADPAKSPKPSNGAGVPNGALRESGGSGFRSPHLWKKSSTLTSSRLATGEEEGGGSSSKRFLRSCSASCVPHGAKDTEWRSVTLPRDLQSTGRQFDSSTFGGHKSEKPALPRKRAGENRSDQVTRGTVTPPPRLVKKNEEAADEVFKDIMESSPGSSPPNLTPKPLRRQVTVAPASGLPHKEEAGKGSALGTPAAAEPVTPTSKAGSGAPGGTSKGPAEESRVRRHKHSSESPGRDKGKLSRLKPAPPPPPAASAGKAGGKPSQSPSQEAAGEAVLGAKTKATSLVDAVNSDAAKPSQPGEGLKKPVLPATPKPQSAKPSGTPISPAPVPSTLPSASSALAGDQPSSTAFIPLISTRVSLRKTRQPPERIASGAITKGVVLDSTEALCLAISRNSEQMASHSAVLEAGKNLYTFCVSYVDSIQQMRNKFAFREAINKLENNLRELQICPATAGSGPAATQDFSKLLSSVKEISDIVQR
T7 sequence (Q06187 2-659 D539N): as the sequence (Q06187 2-659) above, with D538N counted along it
T5 sequence (Q06187 2-659 S180A): as the sequence (Q06187 2-659) above, with S179A counted along it

- ABL activation (ADP-Glo) (ABL [2]): activated
Compound: O=C1NC(=O)C(c2cn(-c3ccccc3)nc2-c2ccc(F)cc2)N1 (stereo not drawn) [DPH, 5-[3-(4-fluorophenyl)-1-phenyl-1H-pyrazol-4-yl]-2,4-imidazolidinedione]
- Kd (ABL [1]): 137 nM

Compound: CC(C)CC(C/C=C1\CC(CO)(COC(=O)C(C)(C)C)OC1=O)CC(C)C (stereo not drawn) [AJH-836]
- Kd (PKC beta): 19.7 nM
- Kd (PKC delta): 1.89 nM
- Kd (PKC epsilon): 1.89 nM
- PKC isoform selectivity (PKCδ): selective for PKCδ and PKC
- cytoskeletal reorganization [3]: AJH-836 induced major changes in cytoskeletal reorganization in lung cancer and HeLa cervical adenocarcinoma cells as determined by the formation of membrane ruffles
- Kd (PKCalpha [4]): 23.6 nM

Compound: CCCCCCCCC#Cc1ccc2c(c1)C[C@@H](CO)NC(=O)[C@H](C(C)C)N2C
- Kd (PKC beta): 17.4 nM
- Kd (PKC delta): 122 nM
- antiproliferative activity against breast carcinoma [5]: antiproliferative activity
- Kd (PKC epsilon): 142 nM
- down-regulation of PKCalpha (PKCalpha [6]): preferentially down-regulates PKCalpha
- Kd (PKCalpha [4]): 14.7 nM
- Kd (PKC gamma): 40.7 nM

- BTK phosphorylation at Ser180 (BTK (Ser180) [9]): drastically lowered BTK phosphorylation
- BTK phosphorylation at Ser180 (BTK (Ser180) [10]): phosphorylation was not detected
- BTK phosphorylation at Ser180 (BTK (Ser180) [11]): markedly reduced
- BTK phosphorylation at Ser180 (BTK (Ser180) [13]): markedly reduced
Compound: Nc1ncnc2c1c(-c1ccc(Oc3ccccc3)cc1)nn2[C@@H]1CCCN(C(=O)CCCCCCCCC(=O)NCCOc2ccc(-c3cc4c(C(=O)O)c[nH]c4cc3Cl)cc2)C1 [PHICS3]
- in vitro BTK phosphorylation (linker comparison) (BTK (Ser180) [7]): most optimal molecule for phosphorylation; also recorded: optimum
- ternary complex formation inside the cells (co-immunoprecipitation) [8]: co-immunoprecipitation of AMPK with BTK
- BTK phosphorylation at Ser180 (BTK (Ser180) [12]; WT BTK-Flag): optimal molecule for phosphorylation; also recorded: able to detect PHICS-mediated BTK phosphorylation at Ser180
- BTK phosphorylation at Ser180 (BTK (Ser180) [12]; pre-treatment with covalent BTK binder ibrutinib): demolished the ability of PHICS3 to induce BTK phosphorylation

Compound: COc1cc2nccc(Oc3ccc(NC(=O)NC4CC4)c(Cl)c3)c2cc1C(N)=O [Lenvatinib]
- Residence time (VEGFR): 17 min
